Measured values as given in patent US4746509A, “Transdermal medicament” (Rhone-Poulenc Sante, priority 1983, dated 1988).
Structures can show the parent of a compound that is named as a salt.

Assay: Solubility in water
Type: physicochemical

CCCC(=O)Nc1ccc(OCC(O)CNC(C)C)c(C(C)=O)c1 (stereo not shown) [acebutolol hydrochloride]
solubility in water: soluble in water
